From patent US9073858B2, “Methods of targeted drug development” (priority 2010, dated 2015)
Like-named read-outs stand apart in the source and are kept apart here.

Tests used:
[1] = target: T1, EGFR (Homo sapiens, UniProt P00533); experiment: EGFR in-cell Western (ICW) screening protocol; format: cell-based; parameters: unit not given here; details: for ICW Screen: initial screen
T1 construct: endogenous in cells; host or cells: A431 cells (ATCC CRL-1555)
In short: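 Serum-starved cells treated with compound 4 h at 37 °C, then stimulated with EGF (20 or 0 ng/ml solution added) in its continued presence. In-cell Western on fixed cells: phospho-EGFR (800 channel) normalised to total EGFR (700 channel), % inhibition calculated against EGF-stimulated and unstimulated no-compound wells.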

[2] = system: epithelial carcinoma A431 cell line; experiment: MTT Cell Proliferation Assay, A431 cell line; format: cell-based; details: for MTT (10 Point follow-up) ratio / MTT-72 h A431/MDBK (ratio): value in brackets; for MTT (10 Point follow-up) ratio: numerically MDBK over A431; for MTT-72 h A431/MDBK (ratio): numerically MDBK value over A431 value
In short: (§1)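 Cells plated overnight, then exposed 3 days at 37 °C, 5% CO2 to compound in growth medium with 0.5% FBS and 0.5% DMSO final (0.5% DMSO as control).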

[3] = system: MDBK line; experiment: MTT Cell Proliferation Assay, MDBK line; format: cell-based, bovine
In short: as §1

[4] = Homo sapiens, A-431, 10 point follow-up, first value of pair, read-out: MTT (10 Point follow-up) A431
[5] = Bos taurus, MDBK, 10 point follow-up, second value of pair, read-out: MTT (10 Point follow-up) MDBK
[6] = 10 point follow-up, first value of pair, read-out: MTT (10 Point follow-up) A431
[7] = 72 h, first value of A431/MDBK pair, read-out: MTT-72 h A431
[8] = 10 point follow-up, second value of pair, read-out: MTT (10 Point follow-up) MDBK
[9] = Homo sapiens, A-431, 72 h, 72 h, first value of A431/MDBK pair, read-out: MTT-72 h A431
[10] = Bos taurus, MDBK, 72 h, second value of A431/MDBK pair, read-out: MTT-72 h MDBK

T1 sequence (P00533 25-1210): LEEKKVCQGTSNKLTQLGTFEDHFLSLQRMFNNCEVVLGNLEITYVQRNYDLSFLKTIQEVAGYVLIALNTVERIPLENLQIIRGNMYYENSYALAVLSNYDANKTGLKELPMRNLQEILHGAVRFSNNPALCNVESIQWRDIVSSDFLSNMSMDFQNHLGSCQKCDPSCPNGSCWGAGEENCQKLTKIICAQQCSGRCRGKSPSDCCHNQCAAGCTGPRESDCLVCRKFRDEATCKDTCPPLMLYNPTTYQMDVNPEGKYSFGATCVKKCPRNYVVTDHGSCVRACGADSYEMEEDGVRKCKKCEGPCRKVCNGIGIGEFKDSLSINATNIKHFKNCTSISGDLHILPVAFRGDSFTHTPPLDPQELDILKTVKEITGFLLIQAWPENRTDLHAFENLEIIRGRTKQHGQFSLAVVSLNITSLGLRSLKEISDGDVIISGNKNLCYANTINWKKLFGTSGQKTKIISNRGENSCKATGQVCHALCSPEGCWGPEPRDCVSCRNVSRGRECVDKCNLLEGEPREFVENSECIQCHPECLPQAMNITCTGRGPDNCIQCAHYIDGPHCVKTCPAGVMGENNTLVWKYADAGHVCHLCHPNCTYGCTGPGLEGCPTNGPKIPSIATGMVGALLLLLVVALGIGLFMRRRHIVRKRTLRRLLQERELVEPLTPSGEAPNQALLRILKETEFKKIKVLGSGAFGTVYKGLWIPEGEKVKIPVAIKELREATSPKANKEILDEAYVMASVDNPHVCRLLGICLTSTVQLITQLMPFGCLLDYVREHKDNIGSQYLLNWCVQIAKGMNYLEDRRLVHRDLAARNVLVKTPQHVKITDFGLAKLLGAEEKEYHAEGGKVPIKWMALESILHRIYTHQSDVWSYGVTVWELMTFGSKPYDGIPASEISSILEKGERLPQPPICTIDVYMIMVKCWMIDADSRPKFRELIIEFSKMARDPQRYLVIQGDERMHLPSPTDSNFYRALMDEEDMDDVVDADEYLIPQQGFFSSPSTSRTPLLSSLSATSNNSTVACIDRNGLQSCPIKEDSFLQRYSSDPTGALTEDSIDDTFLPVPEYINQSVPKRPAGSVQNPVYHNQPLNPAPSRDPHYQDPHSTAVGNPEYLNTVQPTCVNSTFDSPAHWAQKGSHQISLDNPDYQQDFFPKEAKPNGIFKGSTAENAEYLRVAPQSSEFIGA

ICW Screen [1] | IC50 [2, 4] | IC50 [2, 6] | IC50 [2, 7] | IC50 [2, 9] | ICW Re-Test [1] | SMILES | MTT (10 Point follow-up) ratio ([2]; 10 point follow-up) | IC50 [3, 5] | IC50 [3, 8] | IC50 ([3]; 72 h, second value of A431/MDBK pair, read-out: MTT-72 h MDBK) | MTT-72 h A431/MDBK (ratio) ([2]; 72 h) | IC50 [3, 10] | MTT-72 h % Max ([2]; 72 h, maximal effect printed after the ratio)
25.82 | 0.798 µM |  |  |  |  | Cc1ccnc(NC(c2ccc(Cl)cc2)c2ccc3cccnc3c2O)c1 (stereo not drawn) [compound 10481] | 1.54 | 1.23 µM |  |  |  |  | 
16.45 | 0.356 µM |  |  |  |  | Oc1c(C(Nc2ccccn2)c2ccccc2Cl)ccc2cccnc12 (stereo not drawn) [compound 10482] | 1.28 | 0.455 µM |  |  |  |  | 
17.58 |  | 0.253 µM | 0.26 µM |  |  | Cc1cccc(NC(c2ccc(C(F)(F)F)cc2)c2ccc3cccnc3c2O)n1 (stereo not drawn) [compound 10483] |  |  | 0.481 µM | 0.49 µM |  |  | 
26.3 |  | 0.305 µM |  | 0.32 µM |  | Oc1c(C(Nc2ccccn2)c2ccc(Cl)cc2Cl)ccc2cccnc12 (stereo not drawn) [compound 10484] | 2.12 |  | 0.679 µM |  | 2.70 | 0.85 µM | 
25.02 | 0.275 µM |  |  | 0.29 µM |  | Cc1ccnc(NC(c2ccc(C(F)(F)F)cc2)c2ccc3cccnc3c2O)c1 (stereo not drawn) [compound 10486] | 3.07 | 0.844 µM |  |  | 2.76 | 0.8 µM | 
33.14 | 1.33 µM |  | 5.51 µM |  |  | Cc1cccc(NC(c2ccc3c(c2)OCO3)c2ccc3cccnc3c2O)n1 (stereo not drawn) [compound 10487] | 0.72 | 0.963 µM |  |  | 0.96 | 5.28 µM | 
15.95 | 1.85 µM |  |  |  |  | Cc1ccnc(NC(c2ccccc2F)c2ccc3cccnc3c2O)c1 (stereo not drawn) [compound 10488] | 1.20 | 2.22 µM |  |  |  |  | 
31.55 | 1.25 µM |  |  | 1.28 µM |  | Oc1cccnc1NC(c1ccc(F)cc1)c1ccc2cccnc2c1O (stereo not drawn) [compound 10509] | 1.56 | 1.95 µM |  |  | 1.60 | 2.05 µM | 
12.86 | 0.517 µM |  |  |  |  | Oc1cccnc1NC(c1ccccc1F)c1ccc2cccnc2c1O (stereo not drawn) [compound 10512] | 1.92 | 0.991 µM |  |  |  |  | 
39.93 |  |  |  | 6.52 µM | 51.72 | COc1ccc(C(Nc2ccccn2)c2ccc3cccnc3c2O)cc1OC (stereo not drawn) [compound 10518] |  |  |  |  | 0.83 | 5.43 µM | 
26.6 | 1.65 µM |  |  |  |  | Cc1ccnc(NC(c2ccc(F)cc2)c2ccc3cccnc3c2O)c1 (stereo not drawn) [compound 10522] | 1.14 | 1.89 µM |  |  |  |  | 
38.96 |  |  |  | 5.33 µM | 30.44 | COc1ccc(C(Nc2ccccn2)c2ccc3cccnc3c2O)cc1 (stereo not drawn) [compound 10524] |  |  |  |  | 0.95 | 5.09 µM | 
28.31 |  |  |  | 10.8 µM |  | Oc1c(C(c2ccccn2)N2CCN(Cc3ccccc3)CC2)ccc2cccnc12 (stereo not drawn) [compound 10534] |  |  |  |  | 0.85 | 9.18 µM | 
44.02 | 2.04 µM |  |  | 2.72 µM | 52.63 | CCN1CCN(C(c2ccc(C(F)(F)F)cc2)c2ccc3cccnc3c2O)CC1 (stereo not drawn) [compound 10535] | 1.43 | 2.91 µM |  |  | 1.45 | 3.95 µM | 
25.23 |  |  |  | 7.03 µM |  | OCCN1CCN(C(c2cccs2)c2ccc3cccnc3c2O)CC1 (stereo not drawn) [compound 10546] |  |  |  |  | 0.84 | 5.92 µM | 
26.4 |  |  |  | 11.5 µM |  | CCN1CCN(C(c2cccnc2)c2cc(Cl)c3cccnc3c2O)CC1 (stereo not drawn) [compound 10547] |  |  |  |  | 0.52 | 5.96 µM | 
31.03 |  |  |  | 9.05 µM |  | CN1CCN(C(c2ccccn2)c2ccc3cccnc3c2O)CC1 (stereo not drawn) [compound 10548] |  |  |  |  | 0.89 | 8.07 µM | 
31.84 |  |  |  | 9.59 µM |  | CCN1CCN(C(c2cccnc2)c2ccc3cccnc3c2O)CC1 (stereo not drawn) [compound 10550] |  |  |  |  | 0.79 | 7.6 µM | 

ICW Screen [1] | IC50 [2, 4] | IC50 [2, 6] | IC50 [2, 7] | IC50 [2, 9] | ICW Re-Test [1] | SMILES | MTT (10 Point follow-up) ratio ([2]; 10 point follow-up) | IC50 [3, 5] | IC50 [3, 8] | IC50 ([3]; 72 h, second value of A431/MDBK pair, read-out: MTT-72 h MDBK) | MTT-72 h A431/MDBK (ratio) ([2]; 72 h) | IC50 [3, 10] | MTT-72 h % Max ([2]; 72 h, maximal effect printed after the ratio)
29.14 |  |  |  | 20.1 µM |  | CON1CCN(C(c2cccnc2)c2ccc3cccnc3c2O)CC1 (stereo not drawn) [compound 10551] |  |  |  |  | 0.57 | 11.4 µM | 
57.72 | 3.3 µM |  |  | 3.56 µM | 43.06 | Oc1c(C(Nc2nccs2)c2cccs2)ccc2cccnc12 (stereo not drawn) [compound 10602] | 0.71 | 2.35 µM |  |  | 0.65 | 2.31 µM | 
30.02 | 0.311 µM |  |  | 0.32 µM |  | Cc1cccc(NC(c2ccc(C(F)(F)F)cc2)c2ccc3cccnc3c2O)n1 (stereo not drawn) [compound 10628] |  | 0.689 µM |  |  |  | 0.76 µM | 
64.09 |  |  |  | 1.92 µM | 69.21 | Cc1ccc(NC(c2ccccc2)c2ccc3cccnc3c2O)cc1 (stereo not drawn) [compound 10664] |  |  |  |  | 1.12 | 2.14 µM | 
37.96 |  |  |  | 5.43 µM | 57 | CCOc1cc(C(Nc2cccnc2)c2ccc3cccnc3c2O)ccc1O (stereo not drawn) [compound 10936] |  |  |  |  | 1.05 | 5.68 µM | 
40.36 |  |  |  | 25.3 µM | 24.99 | Oc1cc2cccnc2cc1C(Nc1ccccn1)c1cccs1 (stereo not drawn) [compound 10938] |  |  |  |  | 0.88 | 22.1 µM | 
32.68 |  |  |  | 5.67 µM | 33.81 | Cc1ccnc(NC(c2ccccn2)c2ccc3cccnc3c2O)c1 (stereo not drawn) [compound 10939] |  |  |  |  | 1.20 | 6.78 µM | 
38.28 | 0.336 µM |  |  | 13.6 µM | 72.45 | COc1ccc(C(NC(=O)C2CCCCC2)c2cc([N+](=O)[O-])c3cccnc3c2O)cc1OC (stereo not drawn) [compound 10940] | 1.77 | 0.594 µM |  |  | 1.21 | 16.6 µM | 57%
27.61 | 1.12 µM |  |  | 5.92 µM | 67.81 | CCOc1cc(C(NC(=O)C(C)(C)C)c2cc([N+](=O)[O-])c3cccnc3c2O)ccc1O (stereo not drawn) [compound 10941] | 1.56 | 1.75 µM |  |  | 1.02 | 6.05 µM | 
56.15 |  |  |  | 33.3 µM | 95.43 | Oc1c(C(Nc2cccnc2)c2ccc(C(F)(F)F)cc2)ccc2cccnc12 (stereo not drawn) [compound 10942] |  |  |  |  | 1.09 | 36.2 µM | 
44.28 | 1.25 µM |  |  | 1.31 µM | 68.79 | COc1ccc(Cl)cc1C(Nc1ccccn1)c1cc(Cl)c2cccnc2c1O (stereo not drawn) [compound 10943] | 1.50 | 1.88 µM |  |  | 1.60 | 2.1 µM | 
68.22 | 1.86 µM |  |  | 2.03 µM | 67.75 | Cc1ccc(C)c(C(Nc2cccnc2)c2cc(Cl)c3cccnc3c2O)c1 (stereo not drawn) [compound 10944] |  | 2.73 µM |  |  |  | 2.96 µM | 
82.22 |  |  |  | 2.79 µM | 81.41 | CCOc1ccc(C(Nc2cccnc2)c2cc(Cl)c3cccnc3c2O)cc1 (stereo not drawn) [compound 10945] | 0.76 |  |  |  | 0.67 | 1.87 µM | 
42.78 |  |  |  | 5.15 µM | 42.98 | O=[N+]([O-])c1cccc(C(Nc2cccnc2)c2cc(Cl)c3cccnc3c2O)c1 (stereo not drawn) [compound 10947] |  |  |  |  | 0.52 | 2.66 µM | 
44.24 |  |  |  | 8.87 µM | 30.99 | Cc1cccc(NC(c2ccccn2)c2ccc3ccc(C)nc3c2O)n1 (stereo not drawn) [compound 10948] |  |  |  |  | 1.34 | 11.9 µM | 
26.99 |  |  |  | 5.63 µM |  | CCCC(=O)NC(c1ccc(OC)c(OC)c1)c1cc(Cl)c2cccnc2c1O (stereo not drawn) [compound 10949] |  |  |  |  | 1.03 | 5.79 µM | 
33.87 | 0.54 µM |  |  | 0.56 µM | 99.56 | CC(C)C(=O)NC(c1cccs1)c1cc([N+](=O)[O-])c2cccnc2c1O (stereo not drawn) [compound 10950] | 1.63 | 0.878 µM |  |  | 1.70 | 0.95 µM | 
